The test system of data set [1] is advanced soft tissue sarcomas. Conditions: patients; cited from earlier work.
The conditions of data set [2]: humans, cited from earlier work; for Cmax: recommended dose and regimen, read-out: maximum plasma concentration (Cmax).
The test system of a further data set is SW872 liposarcoma cells. Briefly: Clonogenic assay, SW872 liposarcoma cells. The data set is classed as cell-based, human. Particulars: for concentration that inhibits SW872 liposarcoma clonogenicity (colony growth): 4 hours treatment, 2000 cells plated, colonies scored at 7-10 days, FIG. 1. On the procedure: The experimental conditions were intended to bracket these clinically relevant concentrations.
Two thousand treated cells were plated into 60 mm tissue culture plates in triplicate, and colonies (≧40 cells/colony) were scored at 7-10 days with the Eagle Eye II gel documentation system (Stratagene, La Jolla, Calif.). FIG. 1 summarizes the mean and standard deviation of the triplicate colony counts for each experimental condition. […] Ritonavir inhibits colony growth if administered in a concentration of at least 10 μM.
(§1) One thousand treated cells were plated in triplicate in this instance, and colonies were similarly scored.

For data set [3] the following is noted: cited from earlier work.
The next data set concerns pre-adipocytes. Particulars: incubation for 48 hours; cited from earlier work.
In a further data set the test system is S2 liposarcoma cell line. Description: Clonogenic assay, S2 high-grade liposarcoma cells. The data set is classed as cell-based, human. Particulars: 2.5, 10, 20 μM, 4 hours, FIG. 3. On the procedure: A second high-grade liposarcoma cell line, S2 (a kind gift from Dr. Wei Wen, City of Hope Medical Center), was tested for protease inhibitor (PI) therapy for liposarcoma. The purpose of the experiment was to determine whether nelfinavir-mediated inhibition of liposarcoma clonogenicity could be reproduced in S2 cells. As with the SW872 experiment, S2 cells […], indinavir, ritonavir, and saquinavir. […] Colonies (≧40 cells/colony) were scored at 7-10 days with the Eagle Eye II gel documentation system (Stratagene, La Jolla, Calif.). FIG. 3 summarizes the mean and standard deviation of the triplicate colony counts for each experimental condition.

In data set [4] the test system is human 293 embryonic kidney cells. Description: Clonogenic assay, 293 embryonic kidney cells. Conditions: increasing concentrations, 1000 cells plated, FIG. 2. The data set is classed as cell-based. On the procedure:
as §1

Data set [5] concerns differentiated adipocytes. Particulars: incubation for 48 hours; cited from earlier work.
Data set [6] deals with SREBP-1. Description: SREBP-1 protein levels in SW872 cells. The class given is cell-based, human. On the procedure:
In order to influence transcription, the NH2-terminal domain of SREBP-1 must be proteolytically released from the membrane to enter the nucleus (68 kDa). […] Alterations in both SREBP-1 and PPARγ levels have been proposed as the mechanisms underlying of HIV protease-induced lipodystrophy (15-18, 21). To determine whether a similar mechanism is responsible for the observation of nelfinavir-mediated inhibition of liposarcoma clonogenicity, whole cell extracts are prepared from control and nelfinavir-treated SW872 cells for SDS-PAGE electrophoresis. After transfer to polyvinylidene fluoride membranes, the extracts are probed with rabbit polyclonal antibodies to SREBP-1 and PPARγ (Santa Cruz Biotechnology, Santa Cruz, Calif.). Protein detection is performed by ECL using commercially available reagents as per the manufacturer's instructions (Applied Biosystems, Foster City, Calif.). To control for protein-loading, the membranes are stripped and reprobed with antibody to β-actin (Santa Cruz Biotechnology).

For data set [7], the system named is SREBP-1. Briefly: Western blot of SREBP-1 protein in S2 cells. The class given is cell-based, human. Particulars: 10 μM, FIG. 4. An excerpt:
In order to influence transcription, the NH2-terminal domain of SREBP-1 must be proteolytically released from the membrane to enter the nucleus (68 kDa).

For data set [8] the following is noted: cited from earlier work. The source holds these as a separate data set.
Data set [9] deals with human HT1080 fibrosarcoma cells. Briefly: Clonogenic assay, HT1080 fibrosarcoma cells. Particulars: increasing concentrations, 1000 cells plated, FIG. 2. The class given is cell-based. On the procedure: as §1
Data set [10] deals with intermediate to high-grade liposarcoma. Conditions: patients with liposarcoma; cited from earlier work.

Read-outs that look alike come from different tables or passages of the source.

Here are results for 6 compounds from patent US7812034B2, “Method of using protease inhibitors for the treatment of liposarcomas” (City of Hope, priority 2003, dated 2010).

In the case of `COc1cccc2c1C(=O)c1c(O)c3c(c(O)c1C2=O)C[C@@](O)(C(=O)CO)C[C@@H]3O[C@H]1C[C@H](N)[C@H](O)[C@H](C)O1` [doxorubicin], in [1], the response rate result is on record as “about 25%”.

For the compound `CC(C)(C)NC(=O)[C@@H]1CN(Cc2cccnc2)CCN1C[C@@H](O)C[C@@H](Cc1ccccc1)C(=O)N[C@H]1c2ccccc2C[C@H]1O` [indinavir], in data set [2], the Cmax is 12.5 µM.

With `Cc1c(O)cccc1C(=O)N[C@@H](CSc1ccccc1)[C@H](O)CN1C[C@H]2CCCC[C@H]2C[C@H]1C(=O)NC(C)(C)C` [nelfinavir], the “concentration that inhibits SW872 liposarcoma clonogenicity (colony growth)” value with SW872 liposarcoma cells was no less than 2.5 µM. Also, in the data set with SW872 liposarcoma cells (nelfinavir 20 μM, 1000 cells plated, FIG. 2), the “colonies in the SW872 cell line” value was “marked reduction in colonies”. Also, in [3], the water solubility entry is “water-soluble”. The apoptosis in pre-adipocytes entry in the data set with pre-adipocytes is recorded as “not in pre-adipocytes”. In addition, the “clonogenicity in the S2 liposarcoma cell line” value in the data set with S2 liposarcoma cell line was “inhibits clonogenicity”. Besides, the “embryonic kidney (293) clonogenicity” value in [4] is “minimally affecting”. Moreover, in data set [5], the “apoptosis in differentiated adipocytes” value is recorded as “induced apoptosis”. For the same compound, the “expression of SREBP-1” value in the data set with SREBP-1 [6] is recorded as “upregulates expression of SREBP-1”. Besides, in the data set on SREBP-1 [7], the “SREBP-1 protein (nuclear active and precursor forms)” value is “upregulated in a time-dependent fashion”. Moreover, the oral bioavailability was 43% in data set [8] (fed rats) and 70-80% in data set [2] (administered with food). In addition, in data set [8] (rat, daily gavage 50 mg/kg in 5% dextrose or propylene glycol-water), the “plasma Cmax” value was 1340 to 1650 ng/mL. The Cmax was 2.33 to 2.87 µM in data set [8] (rat, daily gavage 50 mg/kg in 5% dextrose or propylene glycol-water, read-out: plasma Cmax) and 6.97 µM in data set [2]. The “time plasma levels were maintained after dosing” value in [8] (rat, oral 50 mg/kg) was “up to 7 hours”. Further, the “fibrosarcoma (HT1080) clonogenicity” value in [9] is listed as “minimally affecting”.

For `CC(C)c1nc(CN(C)C(=O)N[C@H](C(=O)N[C@@H](Cc2ccccc2)C[C@H](O)[C@H](Cc2ccccc2)NC(=O)OCc2cncs2)C(C)C)cs1` [ritonavir], in the data set on SW872 liposarcoma cells, the “concentration that inhibits SW872 liposarcoma clonogenicity (colony growth)” value was “at least 10 μM”. Further, the apoptosis in pre-adipocytes result in the data set on pre-adipocytes is recorded as “not in pre-adipocytes”. The “apoptosis in differentiated adipocytes” value in data set [5] is reported as “induced apoptosis”. Moreover, in data set [2], the Cmax was 15.5 µM.

For `CC(C)(C)NC(=O)[C@@H]1C[C@@H]2CCCC[C@@H]2CN1C[C@@H](O)[C@H](Cc1ccccc1)NC(=O)[C@H](CC(N)=O)NC(=O)c1ccc2ccccc2n1` [saquinavir], in the data set on pre-adipocytes, the apoptosis in pre-adipocytes entry is reported as “not in pre-adipocytes”. Moreover, the “apoptosis in differentiated adipocytes” value in data set [5] was “induced apoptosis”. Also, the Cmax in data set [2] is 3.67 µM.

With `Cc1c(C)c2c(c(C)c1O)CCC(C)(COc1ccc(CC3SC(=O)NC3=O)cc1)O2` (centres unmarked) [troglitazone], the toxicity of therapy result in [10] was “negligible”.
